Experimental data as given in patent publication US7531565B2, “Imidazolidin-2-one derivatives as selective androgen receptor modulators (SARMS)” (Janssen Pharmaceutica, N.V., priority 2004, dated 2009).

Columns and labels:
[1] = test system: castrated male Sprague Dawley rats; assay: Ventral prostate and seminal vesicle weight in vivo assay; parameters: species or system rat; key: A test compound was said to be “active” if the non weight adjusted prostate weight was ≦60 mg or ≧84 mg; they are listed herein as “inactive” as they did not meet the specified criteria defined above; details: immature castrated rats, once daily for five days, usually orally 40 mg/kg, with testosterone propionate 2 mg/kg s.c.
Method: Immature (approximately 50 g) castrated male Sprague Dawley rats (Charles River) were treated once daily for five days with test compound (usually given orally at 40 mg/kg in a volume of 0.3 mL, in 30% cyclodextrin or 0.5% methylcellulose vehicle) and with testosterone propionate (given subcutaneously by injection at the nape of the neck at 2 mg/kg, in a volume of 0.1 mL in sesame oil). On the sixth day, the rats were euthanized by asphyxiation in carbon dioxide. Ventral prosatates and seminal vesicles were removed and their wet weights determined. Test compound activity was determined as the percent inhibition of testosterone-enhanced tissue weights, with a vehicle-treated control group set to zero percent and a testosterone alone-treated control group set to 100%.
A test compound was said to be “active” if the non weight adjusted prostate weight was ≦60 mg or ≧84 mg.

[2] = biological target: T1, androgen receptor (Rattus norvegicus, UniProt P15207); assay: Androgen receptor binding using rat ventral prostate cytosol; parameters: Male Sprague Dawley or Wistar rats (Charles River, 200-300 g) were used for each preparation; from tissue; host or cells: ventral prostate cytosol of castrated male Sprague Dawley or Wistar rats
T1 sequence (P15207 1-902): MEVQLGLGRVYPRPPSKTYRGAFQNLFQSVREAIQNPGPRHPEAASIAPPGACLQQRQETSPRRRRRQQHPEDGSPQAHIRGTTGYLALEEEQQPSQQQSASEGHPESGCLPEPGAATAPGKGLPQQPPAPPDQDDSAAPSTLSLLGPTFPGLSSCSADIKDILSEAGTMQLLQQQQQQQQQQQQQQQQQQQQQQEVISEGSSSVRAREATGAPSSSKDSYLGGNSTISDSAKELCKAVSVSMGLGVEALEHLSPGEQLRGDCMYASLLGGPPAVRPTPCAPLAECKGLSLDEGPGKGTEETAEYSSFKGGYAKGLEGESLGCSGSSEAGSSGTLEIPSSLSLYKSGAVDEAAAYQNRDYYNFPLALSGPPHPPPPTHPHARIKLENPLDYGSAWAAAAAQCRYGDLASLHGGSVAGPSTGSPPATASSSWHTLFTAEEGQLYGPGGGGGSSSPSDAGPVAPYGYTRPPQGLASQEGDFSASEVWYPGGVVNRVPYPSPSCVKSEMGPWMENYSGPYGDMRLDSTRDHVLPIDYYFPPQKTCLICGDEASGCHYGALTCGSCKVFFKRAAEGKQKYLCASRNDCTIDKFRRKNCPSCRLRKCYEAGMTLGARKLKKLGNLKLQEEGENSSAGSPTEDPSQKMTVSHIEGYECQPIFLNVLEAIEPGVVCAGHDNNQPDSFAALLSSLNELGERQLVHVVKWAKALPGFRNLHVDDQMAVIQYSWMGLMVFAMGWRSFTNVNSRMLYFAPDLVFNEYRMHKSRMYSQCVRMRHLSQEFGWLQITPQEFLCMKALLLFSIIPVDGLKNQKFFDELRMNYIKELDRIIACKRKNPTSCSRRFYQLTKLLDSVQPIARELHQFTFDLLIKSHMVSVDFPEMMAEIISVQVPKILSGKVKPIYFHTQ

[3] = biological target: T1, androgen receptor; assay: L929 androgen receptor functional assay, adenovirus transduction; assay type: cell-based; parameters: expressed in transfected cells; details: for % Activition @ 3 μM: agonist testing (no R1881), luciferase
Method: L929 cells were plated in 96-well plates at 20,000 cells per well, in DMEM/F12 (GIBCO) containing 10% (v/v) charcoal-treated fetal bovine serum (Hyclone) and lacking phenol red. The plates were then incubated overnight at 37° C. in 5% (v/v) humidified CO2.
Test compound dilutions were prepared in 100% (v/v) DMSO, if necessary. Each dilution was made to 1250× the final desired assay concentration. First, 2 mL of DMEM/F12 lacking phenol red was pipetted into the wells of a 2-mL 96-well assay block. Next, 4 μL of the 1250× test compound dilutions were pipetted into each well of the assay block. The mixtures within the well were then carefully mixed by pipette.
In a 15 mL or 50 mL sterile centrifuge tube, a 2.5 nM (2.5×) dilution of R1881 (methyl-trienolone) in DMEM/F12 lacking phenol red was prepared. In a second 15 mL or 50 mL centrifuge tube a solution containing an equal volume of DMEM to the first and an equal volume of 100% (v/v) DMSO to the volume of R1881 used in the first tube was prepared.
In a 15 mL or 50 mL sterile centrifuge tube, a dilution in DMEM/F12 of the adenovirus AdEasy+rAR at an moi of 1:500 per well was prepared. The medium was removed from the 96-well plates by inversion and dried, inverted, very briefly. As soon as possible after medium removal, 40 μL of the diluted unlabeled test compound was added to each well, in duplicate. To each well designated for antagonist testing was added 40 μL of the 2.5 nM R1881 dilution to the wells for antagonist testing. To each well designated for agonist testing was added 40 μL of the DMSO dilution. Then 20 μL of the diluted adenovirus were added to all wells. The plates were incubated for 48 hours at 37° C. in 5% (v/v) humidified CO2.
To each well was added 100 μL of Steady-Glo luciferase assay substrate (Promega) and the plates were placed on a rotary shaker for 1 min. The plates were then incubated at room temperature in the dark for one hour. The contents of each well were then transferred to a white microtiter plate (Packard) and read on a Luminoskan Ascent (Thermo Lab Systems).
L929 AR percent activity was determined by testing dilutions of the test compound using a concentration of 3000 nM unless otherwise noted. L929 percent inhibition was determined by testing dilutions of the test compound using a concentration of 3000 nM. EC50s and IC50s were determined by testing serial dilutions of the test compound (usually duplicate ten half-log dilutions starting at 10 μM). Luciferase activity per well were measured and EC50s and IC50s determined by linear regression.
Representative compounds of the present invention were tested for functional activity at the androgen receptor according to the procedure described above with results as listed in Table 4.

[4] = 3 μM, L929 cells, antagonist testing with R1881, luciferase

| SMILES | active / inactive by non weight adjusted prostate weight [1] | % Inhibition @ 3 μM [2] | % Activition @ 3 μM ([3]; 3 μM, L929 cells) | % Inhibition @ 3 μM [3, 4] | inhibition at 3 µM [2] | inhibition at 3 µM ([3]; L929, read-out: % Inhibition @ 3 μM) | inhibition at 3 µM ([3]; 3 μM, L929 cells, antagonist testing with R1881, luciferase, read-out: % Inhibition @ 3 μM) |
| --- | --- | --- | --- | --- | --- | --- | --- |
| COC(=O)C1(C)CN(c2ccccc2)C(=O)N1 (racemic) [Compound 4b] | active | −71% | 0% | 34% |  |  |  |
| CC1(C(=O)O)CN(c2ccccc2)C(=O)N1 (racemic) [Compound 5b] | inactive | −110% | 0% | 32% |  |  |  |
| CC1(C(=O)Nc2ccc(C#N)c(C(F)(F)F)c2)CN(c2ccc(F)cc2)C(=O)N1 (stereo not shown) [Compound 6a, 1-(4-Fluoro-phenyl)-4-methyl-2-oxo-imidazolidine-4-carboxylic acid (4-cyano-3-trifluoromethyl-phenyl)-amide] | active |  | 9% |  | 63% | 37% |  |
| COc1ccc(N2CC(C)(C(=O)O)NC2=O)cc1 (racemic) [Compound 5c] | inactive | −21% | −5% | −14% |  |  |  |
| COC(=O)C1(C)CN(c2ccc(C#N)c(C(F)(F)F)c2)C(=O)N1 (racemic) [Compound 4e] | active | −68% | 0% | −15% |  |  |  |
| COC(=O)C1(C)CN(c2ccc(Cl)c(C(F)(F)F)c2)C(=O)N1 (racemic) [Compound 4d] | inactive | 24% | 0% | 1% |  |  |  |
| CC1(C(=O)Nc2ccccc2)CN(c2ccccc2)C(=O)N1 (racemic) [Compound 6b] | inactive | −68% | 0% | 54% |  |  |  |
| CC1(C(=O)Nc2ccc(C(F)(F)F)nc2)CN(c2ccccc2)C(=O)N1 (racemic) [Compound 6j] | inactive | −75% | 0% | 29% |  |  |  |
| CC1(C(=O)O)CN(c2ccc(F)cc2)C(=O)N1 (stereo not shown) [Compound 5a, 1-(4-Fluoro-phenyl)-4-methyl-2-oxo-imidazolidine-4-carboxylic acid] | inactive |  | 1% |  | 33% |  | 15% |
| CC1(C(=O)O)CN(c2ccc(Cl)c(C(F)(F)F)c2)C(=O)N1 (racemic) [Compound 5d] | inactive | 28% | 0% | −30% |  |  |  |
| COC(=O)C1(C)CN(c2ccc(OC)cc2)C(=O)N1 (racemic) [Compound 4c] | inactive | −36% | 2% | 5% |  |  |  |
| CC1(C(=O)Nc2cccc(C(F)(F)F)c2)CN(c2ccc(F)cc2)C(=O)N1 (racemic) [Compound 6g] | inactive | 23% | 0% | −12% |  |  |  |
| CC1(C(=O)Nc2cc(C(F)(F)F)cc(C(F)(F)F)c2)CN(c2ccc(F)cc2)C(=O)N1 (racemic) [Compound 6h] | active | −17% | 0% | 21% |  |  |  |
| CC1(C(=O)Nc2ccc([N+](=O)[O-])c(C(F)(F)F)c2)CN(c2ccccc2)C(=O)N1 (racemic) [Compound 6e] | inactive | −71% | 2% | 96% |  |  |  |
| CC1(C(=O)Nc2ccc(C#N)c(C(F)(F)F)c2)CN(c2ccccc2)C(=O)N1 (racemic) [Compound 6d] | inactive | 1% | 0% | 59% |  |  |  |
| COc1ccc(N2CC(C)(C(=O)Nc3ccc(C#N)c(C(F)(F)F)c3)NC2=O)cc1 (racemic) [Compound 6c] | inactive | 29% | 0% | 11% |  |  |  |
